PubChem BioAssay AID1963828 (Molecular Pharmacology Branch, DTP, NCI, 2024)

System: 991263-137-R1-J2-PDC complex spheroid viability
Test: Anticancer human tumor 991263-137-R1-J2-PDC patient-derived colon adenocarcinoma cell line growth inhibition [POLQ]
Conditions: for IC50: curve of first compound; for viability, T/C: stronger effect = lower value
In short: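 Growth inhibition in 3D: complex spheroids (tumor PDC, HUVEC, MSC) treated with POLQ inhibitor combinations; where Cmax unknown, highest tested concentration 10 microM, except SN-38 at 1 microM.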

[1] = second compound 0.0316 µM, first compound 0.0316 µM
[2] = second compound 0.0316 µM, first compound 0.1 µM
[3] = second compound 0.0316 µM, first compound 0.316 µM
[4] = second compound 0.0316 µM, first compound 1 µM
[5] = second compound 0.0316 µM, first compound 3.16 µM
[6] = second compound 0.0316 µM, first compound 10 µM
[7] = second compound 0.1 µM, first compound 0.0316 µM
[8] = second compound 0.1 µM, first compound 0.1 µM
[9] = second compound 0.1 µM, first compound 0.316 µM
[10] = second compound 0.1 µM, first compound 1 µM
[11] = second compound 0.1 µM, first compound 3.16 µM
[12] = second compound 0.1 µM, first compound 10 µM
[13] = second compound 0.316 µM, first compound 0.0316 µM
[14] = second compound 0.316 µM, first compound 0.1 µM
[15] = second compound 0.316 µM, first compound 0.316 µM
[16] = second compound 0.316 µM, first compound 1 µM
[17] = second compound 0.316 µM, first compound 3.16 µM
[18] = second compound 0.316 µM, first compound 10 µM
[19] = second compound 1 µM, first compound 0.0316 µM
[20] = second compound 1 µM, first compound 0.1 µM
[21] = second compound 1 µM, first compound 0.316 µM
[22] = second compound 1 µM, first compound 1 µM
[23] = second compound 1 µM, first compound 3.16 µM
[24] = second compound 1 µM, first compound 10 µM
[25] = second compound 3.16 µM, first compound 0.0316 µM
[26] = second compound 3.16 µM, first compound 0.1 µM
[27] = second compound 3.16 µM, first compound 0.316 µM
[28] = second compound 3.16 µM, first compound 1 µM
[29] = second compound 3.16 µM, first compound 3.16 µM
[30] = second compound 3.16 µM, first compound 10 µM
[31] = second compound 10 µM, first compound 0.0316 µM
[32] = second compound 10 µM, first compound 0.1 µM
[33] = second compound 10 µM, first compound 0.316 µM
[34] = second compound 10 µM, first compound 1 µM
[35] = second compound 10 µM, first compound 3.16 µM
[36] = second compound 10 µM, first compound 10 µM
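Also: spheroids exposed to compounds for 7 days before readout.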
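For viability, T/C in this document: 100% = DMSO vehicle control viability.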

## CCc1cc2c(N3CCc4c(cc(Cn5ccnc5)cc4-c4cn(C)nc4C(F)(F)F)C3=O)cc(C)nc2c(OC)n1 + COC1C(OC(N)=O)C(O)C(Oc2ccc3c(O)c(NC(=O)c4ccc(O)c(CC=C(C)C)c4)c(=O)oc3c2C)OC1(C)C
Second compound 0.0316 µM
  IC50: > 10 µM
Second compound 0.1 µM
  IC50: > 10 µM
Second compound 0.316 µM
  IC50: > 10 µM
Second compound 1 µM
  IC50: > 10 µM
Second compound 3.16 µM
  IC50: > 10 µM
Second compound 10 µM
  IC50: > 10 µM
[1]
  viability, T/C: 108%
[2]
  viability, T/C: 89.5%
[3]
  viability, T/C: 103%
[4]
  viability, T/C: 91.4%
[5]
  viability, T/C: 100%
[6]
  viability, T/C: 79.9%
[7]
  viability, T/C: 109%
[8]
  viability, T/C: 117%
[9]
  viability, T/C: 102%
[10]
  viability, T/C: 89.1%
[11]
  viability, T/C: 106%
[12]
  viability, T/C: 101%
[13]
  viability, T/C: 99.6%
[14]
  viability, T/C: 113%
[15]
  viability, T/C: 95.9%
[16]
  viability, T/C: 92.2%
[17]
  viability, T/C: 100%
[18]
  viability, T/C: 88.9%
[19]
  viability, T/C: 97.4%
[20]
  viability, T/C: 93.8%
[21]
  viability, T/C: 81.1%
[22]
  viability, T/C: 95.8%
[23]
  viability, T/C: 106%
[24]
  viability, T/C: 82.2%
[25]
  viability, T/C: 105%
[26]
  viability, T/C: 113%
[27]
  viability, T/C: 101%
[28]
  viability, T/C: 102%
[29]
  viability, T/C: 102%
[30]
  viability, T/C: 86.1%
[31]
  viability, T/C: 95.4%
[32]
  viability, T/C: 104%
[33]
  viability, T/C: 89.8%
[34]
  viability, T/C: 105%
[35]
  viability, T/C: 86.4%
[36]
  viability, T/C: 89.4%

## COc1cc2cc(C(=O)CCC(=O)O)sc2cc1OC + COC1C(OC(N)=O)C(O)C(Oc2ccc3c(O)c(NC(=O)c4ccc(O)c(CC=C(C)C)c4)c(=O)oc3c2C)OC1(C)C
Second compound 0.0316 µM
  IC50: > 10 µM
Second compound 0.1 µM
  IC50: > 10 µM
Second compound 0.316 µM
  IC50: > 10 µM
Second compound 1 µM
  IC50: > 10 µM
Second compound 3.16 µM
  IC50: > 10 µM
Second compound 10 µM
  IC50: > 10 µM
[1]
  viability, T/C: 97%
[2]
  viability, T/C: 109%
[3]
  viability, T/C: 103%
[4]
  viability, T/C: 83.6%
[5]
  viability, T/C: 89.7%
[6]
  viability, T/C: 95.1%
[7]
  viability, T/C: 99.9%
[8]
  viability, T/C: 105%
[9]
  viability, T/C: 99.7%
[10]
  viability, T/C: 90.4%
[11]
  viability, T/C: 116%
[12]
  viability, T/C: 83%
[13]
  viability, T/C: 119%
[14]
  viability, T/C: 130%
[15]
  viability, T/C: 112%
[16]
  viability, T/C: 110%
[17]
  viability, T/C: 94%
[18]
  viability, T/C: 96.8%
[19]
  viability, T/C: 108%
[20]
  viability, T/C: 107%
[21]
  viability, T/C: 115%
[22]
  viability, T/C: 110%
[23]
  viability, T/C: 91.9%
[24]
  viability, T/C: 90.2%
[25]
  viability, T/C: 114%
[26]
  viability, T/C: 97.9%
[27]
  viability, T/C: 90.2%
[28]
  viability, T/C: 118%
[29]
  viability, T/C: 121%
[30]
  viability, T/C: 80.5%
[31]
  viability, T/C: 117%
[32]
  viability, T/C: 112%
[33]
  viability, T/C: 109%
[34]
  viability, T/C: 97.7%
[35]
  viability, T/C: 126%
[36]
  viability, T/C: 88.7%
